Results as given in US20160021921A1, “PRETERM INFANT NUTRITIONAL COMPOSITIONS CONTAINING BETA-HYDROXY-BETA-METHYLBUTYRIC ACID” (ABBOTT LABORATORIES, priority 2013, published 2016).
Entries after “also recorded” stand apart in the source; their conditions may differ.

Key:
Format in all cases: in vivo, neonatal pigs
4EBP1 = assay: Phosphorylation of 4EBP1 in muscles, immunoblotting; details: one hour
Procedure: (§1) Overnight fasted neonatal pigs (5-7 days old) were infused with HMB at 0, 20, 100, or 400 μmol·kg^−1·hr^−1 HMB. Blood plasma concentrations of the following circulating substrates were measured.
(§2) At the end of the infusion, the piglets were sacrificed and the fractional protein synthesis rates were measured by measuring ^3H incorporation into protein fractions after a flooding dose of L[4-^3H]phenylalanine using the method set forth in Garlick, P. J., “A rapid and convenient technique for measuring the rate of protein synthesis in tissues by injection of [3H]Phenylalanine,” Biochem J (1980), Vol. 192, 719-723. Activation of translation initiation was measured in the stomach, duodenum, jejunum, colon, pancreas, kidney, brain and skin. The abundance of intracellular proteins involved in signaling of protein synthesis and in processes related to protein degradation was measured in tissue homogenates by immunoblotting using commercially available antibodies.

S6K1 = assay: Phosphorylation of S6K1 in muscles, immunoblotting; details: one hour
Procedure: as §1, §2

e1F4E•e1F4G complex = assay: Formation of the active e1F4E•e1F4G complex in muscles (FIG. 11); details: one hour
Procedure: as §1, §2

[1] = test system: protein synthesis in skeletal muscles (longissimus dorsi, gastrocnemius, soleus, diaphragm); assay: Fractional protein synthesis rate in skeletal muscles, L[4-3H]phenylalanine flooding dose
Procedure: as §1, §2

LC3-II/LC3-I = assay: Ratio of LC3-II/LC3-I in muscles (autophagy/lysosomal protein degradation); details: one hour
Procedure: as §1, §2

MURF1 = assay: Expression of MURF1 in muscles, immunoblotting; details: one hour
Procedure: as §1, §2

elF2α = assay: Phosphorylation of elF2α in muscles, immunoblotting; details: one hour
Procedure: as §1, §2

[2] = test system: protein synthesis in the lung and spleen; assay: Fractional protein synthesis rate in lung and spleen; details: 20 μmol·kg^−1·hr^−1 HMB for one hour
Procedure: as §1, §2

Atrogin-1 = assay: Expression of Atrogin-1 in muscles, immunoblotting; details: one hour
Procedure: as §1, §2

eEF2 = assay: Phosphorylation of eEF2 in muscles, immunoblotting; details: one hour
Procedure: as §1, §2

amino acid transporters = assay: Level of amino acid transporters in piglet tissues; details: HMB-infused piglets
Procedure: as §2

[3] = 20 μmol·kg^−1·hr^−1 HMB, diaphragm
[4] = 20 μmol·kg^−1·hr^−1 HMB, longissimus dorsi, gastrocnemius, soleus
[5] = 100 μmol·kg^−1·hr^−1 HMB, diaphragm
[6] = 100 μmol·kg^−1·hr^−1 HMB, longissimus dorsi, gastrocnemius, soleus

For CC(C)(O)CC(=O)O [HMB, beta-hydroxy-beta-methylbutyric acid], the “phosphorylation of 4EBP1” value (4EBP1; [3]) was “increased”, the “phosphorylation of 4EBP1” value (4EBP1; [4]) was “increased” and the “phosphorylation of 4EBP1” value (4EBP1; [5]) was “not”. The “phosphorylation of 4EBP1” value (4EBP1; [6]) was “increased”, the “phosphorylation of S6K1” value (S6K1; [3]) was “increased” and the “phosphorylation of S6K1” value (S6K1; [4]) was “increased”. For the same molecule, the “phosphorylation of S6K1” value (S6K1; [5]) was “not”, the “phosphorylation of S6K1” value (S6K1; [6]) was “increased” and the “formation of active eIF4E•eIF4G complex” value (e1F4E•e1F4G complex; [3]) was “increased”. The “formation of active eIF4E•eIF4G complex” value (e1F4E•e1F4G complex; [4]) was “increased”, the “formation of active eIF4E•eIF4G complex” value (e1F4E•e1F4G complex; [5]) was “not” and the “formation of active eIF4E•eIF4G complex” value (e1F4E•e1F4G complex; [6]) was “increased”. The “fractional rate of protein synthesis” value ([1]; 20 μmol·kg^−1·hr^−1 HMB, longissimus dorsi, gastrocnemius, soleus, diaphragm, P<0.05) was “increased; also recorded: greatest impact”, the “fractional rate of protein synthesis” value ([1]; 100 μmol·kg^−1·hr^−1 HMB, gastrocnemius, soleus, diaphragm) was “not significantly” and the “fractional rate of protein synthesis” value ([1]; 100 μmol·kg^−1·hr^−1 HMB, longissimus dorsi muscle, P<0.05) was “increased”. For the same molecule, the “fractional rate of protein synthesis” value ([1]; 400 μmol·kg^−1·hr^−1 HMB, skeletal muscles) was “no significant effect; also recorded: least impact”, the “effectiveness in increasing protein synthesis compared with leucine” value ([1]; HMB 20, 100 or 400 vs leucine 400 μmol·kg^−1·hr^−1, longissimus dorsi, gastrocnemius, soleus, diaphragm, duodenum, brain) was “equal to or more effective; also recorded: as effective as leucine” and the “ratio of LC3-II/LC3-I” value (LC3-II/LC3-I; 20 μmol·kg^−1·hr^−1 HMB) was “did not affect”. For the same molecule, the “ratio of LC3-II/LC3-I” value (LC3-II/LC3-I; 100 μmol·kg^−1·hr^−1 HMB) was “did not affect”, the “expression of MURF1” value (MURF1; 20 μmol·kg^−1·hr^−1 HMB) was “did not affect” and the “expression of MURF1” value (MURF1; 100 μmol·kg^−1·hr^−1 HMB) was “did not affect”. The “phosphorylation of elF2a” value (elF2α; 20 μmol·kg^−1·hr^−1 HMB) was “did not affect”, the “phosphorylation of elF2a” value (elF2α; 100 μmol·kg^−1·hr^−1 HMB) was “did not affect” and the “fractional rate of protein synthesis in lung and spleen” value [2] was “increased”. For the same molecule, the “expression of Atrogin-1” value (Atrogin-1; 20 μmol·kg^−1·hr^−1 HMB) was “did not affect”, the “expression of Atrogin-1” value (Atrogin-1; 100 μmol·kg^−1·hr^−1 HMB) was “did not affect” and the “phosphorylation of eEF2” value (eEF2; 20 μmol·kg^−1·hr^−1 HMB) was “did not affect”. The “phosphorylation of eEF2” value (eEF2; 100 μmol·kg^−1·hr^−1 HMB) was “did not affect” and the “level of amino acid transporters” value (amino acid transporters) was “did not affect”.
